Where only a bound is given, the exact number is not on record here.

The target in this assay is human capsaicin receptor (VR1) (Homo sapiens, UniProt Q8NER1). Nature of the assay: Capsaicin receptor binding assay ([3H]RTX competition, VR1-transfected HEK293 membranes).
human capsaicin receptor (VR1), sequence (Q8NER1 whole entry): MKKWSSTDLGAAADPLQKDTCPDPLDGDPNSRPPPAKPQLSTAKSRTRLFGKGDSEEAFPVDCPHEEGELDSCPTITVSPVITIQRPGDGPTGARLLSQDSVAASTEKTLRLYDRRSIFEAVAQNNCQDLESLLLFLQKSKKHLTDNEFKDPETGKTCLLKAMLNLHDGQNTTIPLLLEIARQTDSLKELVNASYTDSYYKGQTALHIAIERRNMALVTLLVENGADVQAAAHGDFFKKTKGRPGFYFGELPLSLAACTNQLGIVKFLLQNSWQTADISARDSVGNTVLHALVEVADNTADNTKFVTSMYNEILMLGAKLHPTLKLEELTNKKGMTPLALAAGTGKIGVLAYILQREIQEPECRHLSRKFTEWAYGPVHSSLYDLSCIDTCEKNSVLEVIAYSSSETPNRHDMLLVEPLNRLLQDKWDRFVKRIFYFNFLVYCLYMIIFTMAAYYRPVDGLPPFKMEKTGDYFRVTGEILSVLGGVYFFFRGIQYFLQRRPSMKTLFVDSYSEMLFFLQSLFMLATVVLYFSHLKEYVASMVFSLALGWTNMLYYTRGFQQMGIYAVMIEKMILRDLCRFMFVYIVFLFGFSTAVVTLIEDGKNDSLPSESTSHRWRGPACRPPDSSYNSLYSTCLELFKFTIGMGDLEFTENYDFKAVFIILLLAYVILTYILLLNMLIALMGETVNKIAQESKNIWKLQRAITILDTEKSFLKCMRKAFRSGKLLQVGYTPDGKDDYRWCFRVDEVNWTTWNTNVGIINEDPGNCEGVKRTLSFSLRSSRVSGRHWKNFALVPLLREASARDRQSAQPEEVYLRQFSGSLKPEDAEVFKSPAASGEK
As to `CCCCN(CCCC)CCc1nc(Nc2ccc(C(F)(F)F)cc2)c2ccc(-c3ncccc3C(F)(F)F)cc2n1` [Compound 420, [2-Dibutylaminoethyl-7-(3-trifluoromethyl-pyridin-2-yl)-quinazolin-4-yl]-(4-trifluoromethyl-phenyl)-amine], the Ki is < 1000 nM.

In the case of `CC(C)N(C)CCc1nc(Nc2ccc(C(F)(F)F)cc2)c2ccc(-c3ncccc3C(F)(F)F)cc2n1` [Compound 421, [2-[(Isopropyl-methyl-amino)-ethyl]-7-(3-trifluoromethyl-pyridin-2-yl)-quinazolin-4-yl]-(4-trifluoromethyl-phenyl)-amine], the Ki was < 1000 nM.

Take `CC1CCCCN1CCc1nc(Nc2ccc(C(F)(F)F)cc2)c2ccc(-c3ncccc3C(F)(F)F)cc2n1` (centres unmarked) [Compound 422, [2-(2-Methyl-piperidin-1-ylethyl)-7-(3-trifluoromethyl-pyridin-2-yl)-quinazolin-4-yl]-(4-trifluoromethyl-phenyl)-amine]: the Ki is < 1000 nM.

Regarding `C=C(C)CN(CC)CCc1nc(Nc2ccc(C(F)(F)F)cc2)c2ccc(-c3ncccc3C(F)(F)F)cc2n1` [Compound 423, [2-{2-[Ethyl-(2-methyl-allyl)-amino]-ethyl}-7-(3-trifluoromethyl-pyridin-2-yl)-quinazolin-4-yl]-(4-trifluoromethyl-phenyl)-amine], the inhibition constant (Ki) is < 1000 nM.

Turning to `CN(CCc1nc(Nc2ccc(C(F)(F)F)cc2)c2ccc(-c3ncccc3C(F)(F)F)cc2n1)C1CCCCC1` [Compound 424, [2-[(Cyclohexyl-methyl-amino)-ethyl]-7-(3-trifluoromethyl-pyridin-2-yl)-quinazolin-4-yl]-(4-trifluoromethyl-phenyl)-amine], the Ki was < 1000 nM.

As to `CCC1CCCCN1CCc1nc(Nc2ccc(C(F)(F)F)cc2)c2ccc(-c3ncccc3C(F)(F)F)cc2n1` (centres unmarked) [Compound 425, [2-(2-Ethyl-piperidin-1-ylethyl)-7-(3-trifluoromethyl-pyridin-2-yl)-quinazolin-4-yl]-(4-trifluoromethyl-phenyl)-amine], the Ki was < 1000 nM.

As to `CCN(CCc1nc(Nc2ccc(C(F)(F)F)cc2)c2ccc(-c3ncccc3C(F)(F)F)cc2n1)C1CCCCC1` [Compound 426, [2-[(Cyclohexyl-ethyl-amino)-ethyl]-7-(3-trifluoromethyl-pyridin-2-yl)-quinazolin-4-yl]-(4-trifluoromethyl-phenyl)-amine], the Ki is < 1000 nM.

Regarding `COCCN(CCOC)CCc1nc(Nc2ccc(C(F)(F)F)cc2)c2ccc(-c3ncccc3C(F)(F)F)cc2n1` [Compound 427, [2-{2-[Bis-(2-methoxy-ethyl)-amino]-ethyl}-7-(3-trifluoromethyl-pyridin-2-yl)-quinazolin-4-yl]-(4-trifluoromethyl-phenyl)-amine], the inhibitory constant (Ki) is < 1000 nM.

Regarding `CCCCCN(CCCCC)CCc1nc(Nc2ccc(C(F)(F)F)cc2)c2ccc(-c3ncccc3C(F)(F)F)cc2n1` [Compound 428, [2-Dipentylaminoethyl-7-(3-trifluoromethyl-pyridin-2-yl)-quinazolin-4-yl]-(4-trifluoromethyl-phenyl)-amine], the Ki is < 1000 nM.

For `CCCCCCN(CCCCCC)CCc1nc(Nc2ccc(C(F)(F)F)cc2)c2ccc(-c3ncccc3C(F)(F)F)cc2n1` [Compound 429, [2-Dihexylaminoethyl-7-(3-trifluoromethyl-pyridin-2-yl)-quinazolin-4-yl]-(4-trifluoromethyl-phenyl)-amine], the Ki was < 1000 nM.

As for `CC1CC(C)CN(CCc2nc(Nc3ccc(C(F)(F)F)cc3)c3ccc(-c4ncccc4C(F)(F)F)cc3n2)C1` (centres unmarked) [Compound 430, [2-(3,5-Dimethyl-piperidin-1-ylethyl)-7-(3-trifluoromethyl-pyridin-2-yl)-quinazolin-4-yl]-(4-trifluoromethyl-phenyl)-amine], the Ki was < 1000 nM.

`CCN1CCCC1CNC(=O)c1nc(Nc2ccc(C(F)(F)F)cc2)c2ccc(-c3ncccc3C(F)(F)F)nc2n1` (centres unmarked) [Compound 431, 4-(4-Trifluoromethyl-phenylamino)-7-(3-trifluoromethyl-pyridin-2-yl)-pyrido[2,3-d]pyrimidine-2-carboxylic acid (1-ethyl-pyrrolidin-2-ylmethyl)-amide]: the Ki was < 1000 nM.

Consider `O=C(NCCCN1CCCC1)c1nc(Nc2ccc(C(F)(F)F)cc2)c2ccc(-c3ncccc3C(F)(F)F)nc2n1` [Compound 432, 4-(4-Trifluoromethyl-phenylamino)-7-(3-trifluoromethyl-pyridin-2-yl)-pyrido[2,3-d]pyrimidine-2-carboxylic acid (3-pyrrolidin-1-yl-propyl)-amide], for which the Ki is < 1000 nM.

Turning to `CN1CCN(CCCNC(=O)c2nc(Nc3ccc(C(F)(F)F)cc3)c3ccc(-c4ncccc4C(F)(F)F)nc3n2)CC1` [Compound 433, 4-(4-Trifluoromethyl-phenylamino)-7-(3-trifluoromethyl-pyridin-2-yl)-pyrido[2,3-d]pyrimidine-2-carboxylic acid [3-(4-methyl-piperazin-1-yl)-propyl]-amide], the Ki was < 1000 nM.

With `CN(C)CC(C)(C)CNC(=O)c1nc(Nc2ccc(C(F)(F)F)cc2)c2ccc(-c3ncccc3C(F)(F)F)nc2n1` [Compound 434, 4-(4-Trifluoromethyl-phenylamino)-7-(3-trifluoromethyl-pyridin-2-yl)-pyrido[2,3-d]pyrimidine-2-carboxylic acid (3-dimethylamino-2,2-dimethyl-propyl)-amide], the Ki was < 1000 nM.

Consider `CN(C)CCNC(=O)c1nc(Nc2ccc(C(F)(F)F)cc2)c2ccc(-c3ncccc3C(F)(F)F)nc2n1` [Compound 435, 4-(4-Trifluoromethyl-phenylamino)-7-(3-trifluoromethyl-pyridin-2-yl)-pyrido[2,3-d]pyrimidine-2-carboxylic acid (2-dimethylamino-ethyl)-amide], for which the Ki was < 1000 nM.

In the case of `CN(C)CCCNC(=O)c1nc(Nc2ccc(C(F)(F)F)cc2)c2ccc(-c3ncccc3C(F)(F)F)nc2n1` [Compound 436, 4-(4-Trifluoromethyl-phenylamino)-7-(3-trifluoromethyl-pyridin-2-yl)-pyrido[2,3-d]pyrimidine-2-carboxylic acid (3-dimethylamino-propyl)-amide], the Ki is < 1000 nM.

With `O=C(NCCN1CCCC1)c1nc(Nc2ccc(C(F)(F)F)cc2)c2ccc(-c3ncccc3C(F)(F)F)nc2n1` [Compound 437, 4-(4-Trifluoromethyl-phenylamino)-7-(3-trifluoromethyl-pyridin-2-yl)-pyrido[2,3-d]pyrimidine-2-carboxylic acid (2-pyrrolidin-1-yl-ethyl)-amide], the Ki is < 1000 nM.

`CCN(CC)CCNC(=O)c1nc(Nc2ccc(C(F)(F)F)cc2)c2ccc(-c3ncccc3C(F)(F)F)nc2n1` [Compound 438, 4-(4-Trifluoromethyl-phenylamino)-7-(3-trifluoromethyl-pyridin-2-yl)-pyrido[2,3-d]pyrimidine-2-carboxylic acid (2-diethylamino-ethyl)-amide]: the Ki was < 1000 nM.

As to `O=C(NCCN1CCCCC1)c1nc(Nc2ccc(C(F)(F)F)cc2)c2ccc(-c3ncccc3C(F)(F)F)nc2n1` [Compound 439, 4-(4-Trifluoromethyl-phenylamino)-7-(3-trifluoromethyl-pyridin-2-yl)-pyrido[2,3-d]pyrimidine-2-carboxylic acid (2-piperidin-1-yl-ethyl)-amide], the Ki was < 1000 nM.

Broadly, the Ki is a dissociation constant, usually derived from enzyme kinetics or from competition with a known ligand. High values mean a looser hold on the target, low ones a stronger hold on the target.

Source of the values: patent publication US20040156869A1, “2-substituted quinazolin-4-ylamine analogues” (Neurogen Corporation, priority 2002, published 2004).
